Measurements published in patent US9149038B2, “4-amino-6-(heterocyclic)picolinates and 6-amino-2-(heterocyclic)pyrimidine-4-carboxylates and their use as herbicides” (Dow AgroSciences LLC, priority 2013, dated 2015).
Where two headings read alike, the source gives them in different places.

Tested on: Direct Seeded Rice and weed species
Test: Postemergence herbicidal activity in direct seeded rice, visual rating after 20-22 days and probit GR20/GR50/GR80/GR90 (Table 14)
Type: in vivo
Settings: for pest or weed control at 17.5 g/ha / pest or weed control at 35 g/ha / pest or weed control at 70 g/ha: post-emergence, 504 h, postemergence; for pest or weed control at 17.5 g/ha: 17.5 g ai/ha; for pest or weed control at 35 g/ha: 35 g ai/ha; for pest or weed control at 70 g/ha: 70 g ai/ha
In short: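 Visual injury scores (0 = none, 100 = complete kill) taken 20-22 days after treatment and fitted by probit analysis over several doses to give GR20/GR50/GR80/GR90. Plants at 2nd–3rd true leaf in pH about 8.1 loam–sand mix received track-sprayer applications of 187 L/ha containing 1.25% (v/v) crop oil concentrate.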

[1] = BRAPP (broadleaf signalgrass, Brachiaria platyphylla), read-out: Visual Growth Reduction (%) 21 Days After Application BRAPP
[2] = CYPDI (small-flower flatsedge, Cyperus difformis), read-out: Visual Growth Reduction (%) 21 Days After Application CYPDI
[3] = CYPES (yellow nutsedge, Cyperus esculentus), read-out: Visual Growth Reduction (%) 21 Days After Application CYPES
[4] = CYPIR (rice flatsedge, Cyperus iria), read-out: Visual Growth Reduction (%) 21 Days After Application CYPIR
[5] = DIGSA (large crabgrass, Digitaria sanguinalis), read-out: Visual Growth Reduction (%) 21 Days After Application DIGSA
[6] = ECHCG (barnyardgrass, Echinochloa crus-galli), read-out: Visual Growth Reduction (%) 21 Days After Application ECHCG
[7] = ECHCO (junglerice, Echinochloa colonum), read-out: Visual Growth Reduction (%) 21 Days After Application ECHCO
[8] = LEFCH (Chinese sprangletop, Leptochloa chinensis), read-out: Visual Growth Reduction (%) 21 Days After Application LEFCH
[9] = ORYSJ (Oryza sativa, rice crop), read-out: Visual Growth Reduction (%) 21 Days After Application ORYSJ
[10] = ORYSK (Oryza sativa, rice crop), read-out: Visual Growth Reduction (%) 21 Days After Application ORYSK
[11] = SCPJU (Japanese bulrush, Schoenoplectus juncoides Roxb.), read-out: Visual Growth Reduction (%) 21 Days After Application SCPJU
[12] = SEBEX (hemp sesbania, Sesbania exaltata), read-out: Visual Growth Reduction (%) 21 Days After Application SEBEX

COC(=O)c1nc(-c2ccc3c(c2F)OC(F)(F)O3)c(F)c(N)c1Cl [Compound 10]
GR50 BRAPP (BRAPP (Brachiaria platyphylla), probit analysis, dose for 50 percent growth reduction): 7 g ai/ha
GR80 BRAPP (BRAPP (Brachiaria platyphylla), probit analysis, dose for 80 percent growth reduction): 16 g ai/ha
GR90 BRAPP (BRAPP (Brachiaria platyphylla), probit analysis, dose for 90 percent growth reduction): 24 g ai/ha
GR50 CYPDI (CYPDI (Cyperus difformis), probit analysis, dose for 50 percent growth reduction): 4 g ai/ha
GR80 CYPDI (CYPDI (Cyperus difformis), probit analysis, dose for 80 percent growth reduction): 8 g ai/ha
GR90 CYPDI (CYPDI (Cyperus difformis), probit analysis, dose for 90 percent growth reduction): 10 g ai/ha
GR50 CYPES (CYPES (Cyperus esculentus), probit analysis, dose for 50 percent growth reduction): <18 g ai/ha
GR80 CYPES (CYPES (Cyperus esculentus), probit analysis, dose for 80 percent growth reduction): <18 g ai/ha
GR90 CYPES (CYPES (Cyperus esculentus), probit analysis, dose for 90 percent growth reduction): <18 g ai/ha
GR50 CYPIR (CYPIR (Cyperus iria), probit analysis, dose for 50 percent growth reduction): 6 g ai/ha
GR80 CYPIR (CYPIR (Cyperus iria), probit analysis, dose for 80 percent growth reduction): 10 g ai/ha
GR90 CYPIR (CYPIR (Cyperus iria), probit analysis, dose for 90 percent growth reduction): 13 g ai/ha
GR50 DIGSA (DIGSA (Digitaria sanguinalis), probit analysis, dose for 50 percent growth reduction): 1 g ai/ha
GR80 DIGSA (DIGSA (Digitaria sanguinalis), probit analysis, dose for 80 percent growth reduction): 8 g ai/ha
GR90 DIGSA (DIGSA (Digitaria sanguinalis), probit analysis, dose for 90 percent growth reduction): 21 g ai/ha
GR50 ECHCG (ECHCG (Echinochloa crus-galli), probit analysis, dose for 50 percent growth reduction): 10 g ai/ha
GR80 ECHCG (ECHCG (Echinochloa crus-galli), probit analysis, dose for 80 percent growth reduction): 14 g ai/ha
GR90 ECHCG (ECHCG (Echinochloa crus-galli), probit analysis, dose for 90 percent growth reduction): 16 g ai/ha
GR50 ECHCO (ECHCO (Echinochloa colonum), probit analysis, dose for 50 percent growth reduction): 6 g ai/ha
GR80 ECHCO (ECHCO (Echinochloa colonum), probit analysis, dose for 80 percent growth reduction): 14 g ai/ha
GR90 ECHCO (ECHCO (Echinochloa colonum), probit analysis, dose for 90 percent growth reduction): 21 g ai/ha
GR50 LEFCH (LEFCH (Leptochloa chinensis), probit analysis, dose for 50 percent growth reduction): 12 g ai/ha
GR80 LEFCH (LEFCH (Leptochloa chinensis), probit analysis, dose for 80 percent growth reduction): 20 g ai/ha
GR90 LEFCH (LEFCH (Leptochloa chinensis), probit analysis, dose for 90 percent growth reduction): 27 g ai/ha
GR20 ORYSJ (ORYSJ (Oryza sativa, rice crop), probit analysis, dose for 20 percent growth reduction): 14 g ai/ha
GR20 ORYSK (ORYSK (Oryza sativa, rice crop), probit analysis, dose for 20 percent growth reduction): 20 g ai/ha
GR50 SCPJU (SCPJU (Schoenoplectus juncoides Roxb.), probit analysis, dose for 50 percent growth reduction): 0.0002 g ai/ha
GR80 SCPJU (SCPJU (Schoenoplectus juncoides Roxb.), probit analysis, dose for 80 percent growth reduction): 0.0207 g ai/ha
GR90 SCPJU (SCPJU (Schoenoplectus juncoides Roxb.), probit analysis, dose for 90 percent growth reduction): 0.268 g ai/ha
GR50 SEBEX (SEBEX (Sesbania exaltata), probit analysis, dose for 50 percent growth reduction): 3 g ai/ha
GR80 SEBEX (SEBEX (Sesbania exaltata), probit analysis, dose for 80 percent growth reduction): 8 g ai/ha
GR90 SEBEX (SEBEX (Sesbania exaltata), probit analysis, dose for 90 percent growth reduction): 13 g ai/ha
pest or weed control at 17.5 g/ha [1]: 85 to 94%
pest or weed control at 35 g/ha [1]: 95 to 100%
pest or weed control at 70 g/ha [1]: 95 to 100%
pest or weed control at 17.5 g/ha [2]: 95 to 100%
pest or weed control at 35 g/ha [2]: 95 to 100%
pest or weed control at 70 g/ha [2]: 95 to 100%
pest or weed control at 17.5 g/ha [3]: 95 to 100%
pest or weed control at 35 g/ha [3]: 95 to 100%
pest or weed control at 70 g/ha [3]: 95 to 100%
pest or weed control at 17.5 g/ha [4]: 95 to 100%
pest or weed control at 35 g/ha [4]: 95 to 100%
pest or weed control at 70 g/ha [4]: 95 to 100%
pest or weed control at 17.5 g/ha [5]: 95 to 100%
pest or weed control at 35 g/ha [5]: 85 to 94%
pest or weed control at 70 g/ha [5]: 95 to 100%
pest or weed control at 17.5 g/ha [6]: 95 to 100%
pest or weed control at 35 g/ha [6]: 95 to 100%
pest or weed control at 70 g/ha [6]: 95 to 100%
pest or weed control at 17.5 g/ha [7]: 85 to 94%
pest or weed control at 35 g/ha [7]: 95 to 100%
pest or weed control at 70 g/ha [7]: 95 to 100%
pest or weed control at 17.5 g/ha [8]: 60 to 74%
pest or weed control at 35 g/ha [8]: 95 to 100%
pest or weed control at 70 g/ha [8]: 95 to 100%
pest or weed control at 17.5 g/ha [9]: 0 to 29%
pest or weed control at 35 g/ha [9]: 60 to 74%
pest or weed control at 70 g/ha [9]: 75 to 84%
pest or weed control at 17.5 g/ha [10]: 0 to 29%
pest or weed control at 35 g/ha [10]: 45 to 59%
pest or weed control at 70 g/ha [10]: 75 to 84%
pest or weed control at 17.5 g/ha [11]: 95 to 100%
pest or weed control at 35 g/ha [11]: 95 to 100%
pest or weed control at 70 g/ha [11]: 95 to 100%
pest or weed control at 17.5 g/ha [12]: 95 to 100%
pest or weed control at 35 g/ha [12]: 95 to 100%
pest or weed control at 70 g/ha [12]: 95 to 100%
